Data as given in PubChem BioAssay AID488810 (Sanford-Burnham Center for Chemical Genomics, 2010).
Several values for one entry are separate records, joined by “and”; a condition that tells them apart may be missing. Equal values may be shown once. Activity calls are given as the source filed them.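 The calls were made as follows: active = compounds with IC50 below 20 µM; inactive = the rest.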

Target: Type-1 angiotensin II receptor (Homo sapiens) (UniProt P30556)
Assay: AT1 receptor antagonists, beta-arrestin recruitment, SAR follow-up, selectivity assay for APJ antagonist project, cell-based, CHO-K1 PathHunter, luminescence (AID 488810);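 also: agonist challenge with angiotensin II at 50 nM final near its EC80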
Conditions: CHO-K1 AGTR1 PathHunter beta-arrestin, antagonist mode

Type-1 angiotensin II receptor (Homo sapiens), sequence (P30556 whole entry, looked up): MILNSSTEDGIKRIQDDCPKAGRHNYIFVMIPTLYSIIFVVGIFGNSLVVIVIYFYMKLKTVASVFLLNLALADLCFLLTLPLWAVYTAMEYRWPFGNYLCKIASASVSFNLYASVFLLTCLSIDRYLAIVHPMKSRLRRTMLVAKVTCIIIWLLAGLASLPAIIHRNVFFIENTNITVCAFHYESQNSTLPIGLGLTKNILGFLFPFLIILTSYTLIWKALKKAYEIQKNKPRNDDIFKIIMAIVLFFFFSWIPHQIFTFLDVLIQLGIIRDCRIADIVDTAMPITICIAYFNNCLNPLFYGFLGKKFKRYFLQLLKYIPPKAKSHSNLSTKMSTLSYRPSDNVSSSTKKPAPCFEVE

Structure (SMILES) | IC50
O=C(Oc1coc(CSc2ncccn2)cc1=O)c1ccc(-c2ccccc2)cc1 | > 79 µM (inactive)
COc1ccccc1NCC(O)c1ccc(Cl)cc1 (stereo not given) | > 79 µM (inactive)
S=C1NCCc2ccccc2C1c1ccccc1Cl (stereo not given) | 16.5 µM
Cc1ccnc(SCc2cc(=O)c(OC(=O)c3ccccc3C)co2)n1 | > 79 µM (inactive)
Cc1ccnc(SCc2cc(=O)c(OC(=O)c3ccccc3Cl)co2)n1 | > 79 µM (inactive)
Cc1ccc(C(=O)Oc2coc(CSc3nccc(C)n3)cc2=O)cc1 | > 79 µM (inactive)
Cc1ccnc(SCc2cc(=O)c(OC(=O)c3ccco3)co2)n1 | > 79 µM (inactive)
Cc1ccc(OCC(=O)OCC(=O)c2cccc([N+](=O)[O-])c2)cc1C | 15.8 µM
O=C(COC(=O)c1cccnc1)c1ccc(Cl)c(Cl)c1 | inactive
O=C(CNC(=O)c1ccco1)NCC(=O)OCC(=O)c1ccc(Cl)c([N+](=O)[O-])c1 | 4.78 µM
COc1cccc(/C=C/c2ccc3cccc(O)c3n2)c1OC | 14.1 µM
Cc1cc(C)nc(SCc2cc(=O)c(OC(=O)c3cc(Cl)ccc3[N+](=O)[O-])co2)n1 | inactive
COc1cccc(C(=O)Oc2coc(CSc3nccc(C)n3)cc2=O)c1 | > 79 µM (inactive)
Cc1ccc(C(=O)Oc2coc(CSc3ncccn3)cc2=O)cc1[N+](=O)[O-] | > 79 µM (inactive)
O=C(CNc1ccc(Br)cc1)c1ccccc1 | 2.66 µM
C=CCOc1ccc(CSc2nc(C)cc(C)n2)cc1Cl | > 79 µM (inactive)
CC(C)(C)c1ccc(C(=O)Oc2coc(CSc3ncccn3)cc2=O)cc1 | > 79 µM (inactive)
Oc1cccc2ccc(/C=C/c3ccccc3Cl)nc12 | 17 µM
O=c1cc(CSc2ccc(Cl)cc2)nc(-c2ccccn2)[nH]1 | 9.04 µM
CCN(CC)S(=O)(=O)c1ccc(C(=O)Oc2coc(CSc3ncccn3)cc2=O)cc1 | > 79 µM (inactive)
Cc1ccnc(SCc2cc(=O)c(OC(=O)c3ccc(C#N)cc3)co2)n1 | > 79 µM (inactive)
Cc1ccnc(SCc2cc(=O)c(OC(=O)c3ccc(C)c([N+](=O)[O-])c3)co2)n1 | > 79 µM (inactive)
Cc1ccnc(SCc2cc(=O)c(OC(=O)c3ccccc3)co2)n1 | > 79 µM (inactive)
Cc1cc(C)nc(SCc2cc(=O)c(OC(=O)c3ccc(Cl)c([N+](=O)[O-])c3)co2)n1 | > 79 µM (inactive)
Cc1c(C(=O)Oc2coc(CSc3ncccn3)cc2=O)cccc1[N+](=O)[O-] | > 79 µM (inactive)
Cc1ccc(NCC(O)c2ccccc2)cc1 (stereo not given) | > 79 µM (inactive)
Cc1ccnc(SCc2cc(=O)c(OC(=O)c3cccc([N+](=O)[O-])c3)co2)n1 | > 79 µM (inactive)

Structure (SMILES) | IC50
CSc1cccc(N=C2C(=O)Nc3ccccc32)c1 | 5.13 µM and 8.85 µM
CN(C)S(=O)(=O)c1ccc(C(=O)Oc2coc(CSc3ncccn3)cc2=O)cc1 | > 79 µM (inactive)
C=CCOc1cccc(CSc2nccc(C)n2)c1 | > 79 µM (inactive)
Cc1ccccc1C1CC2(CC(C)(C)NC(=S)N2)Oc2cc(O)c(Cl)cc21 (stereo not given) | > 79 µM (inactive)
Cc1ccc(C(=O)CNc2ccccc2)cc1 | 3.37 µM
O=c1c2cc(Br)ccc2[nH]c(=S)n1Cc1ccccn1 | 15.6 µM
O=C(Oc1coc(CSc2ncccn2)cc1=O)c1ccc(Cl)c([N+](=O)[O-])c1 | > 79 µM (inactive)
COc1ccc(N=C2C(=O)Nc3ccc(C)c(Br)c32)cc1 | > 79 µM (inactive)
COc1ccc(C2CC3(CC(C)(C)NC(=S)N3)Oc3cc(O)cc(C)c32)cc1 (stereo not given) | > 79 µM (inactive)
Cc1ccnc(SCc2cc(=O)c(O)co2)n1 | > 79 µM (inactive)
O=C(Oc1coc(CSc2ncccn2)cc1=O)c1ccc(S(=O)(=O)N2CCCCC2)cc1 | > 79 µM (inactive)
O=C(Oc1coc(CSc2ncccn2)cc1=O)c1cc(Cl)ccc1[N+](=O)[O-] | inactive
CC(C)Cc1nc2oc3c(Cl)ncnc3c2c2c1CCC2 | 15 µM
Cc1cc(C)nc(NNS(=O)(=O)c2c(F)cc(F)cc2Br)n1 | 5.01 µM
C=CCSC1=NC2(CC(c3ccc(C)cc3)c3c(C)cc(OC(C)=O)cc3O2)CC(C)(C)N1 (stereo not given) | > 79 µM (inactive)
O=C(Oc1coc(CSc2ncccn2)cc1=O)c1ccccc1 | > 79 µM (inactive)
COC(=O)C1NN=C(C(=O)c2ccc(Cl)cc2)C1c1ccc(OC)cc1 (stereo not given) | 16.1 µM
CSC1=NC2(CC(c3ccccc3)c3cc(Cl)c(O)cc3O2)CC(C)(C)N1 (stereo not given) | > 79 µM (inactive)
Cc1cccc(C(=O)Oc2coc(CSc3nccc(C)n3)cc2=O)c1 | > 79 µM (inactive)
Cc1cc(C)nc(SCc2ccc(OC(=O)c3ccccc3)c(Cl)c2)n1 | > 79 µM (inactive)
CC1(C)CC2(CC(c3ccccc3F)c3cc(Cl)c(O)cc3O2)NC(=S)N1 (stereo not given) | > 79 µM (inactive)
O=C(COC(=O)c1cccnc1)c1ccc(Cl)cc1 | > 79 µM (inactive)
O=C(Oc1coc(CSc2ncccn2)cc1=O)c1ccc(S(=O)(=O)N2CCCC2)cc1 | > 79 µM (inactive)
CCC1CCCCN1CC(=O)c1ccc(OC(F)F)cc1 (stereo not given) | inactive
O=c1cc(CSc2ccccc2)occ1O | > 79 µM (inactive)
O=C(Oc1coc(CSc2ncccn2)cc1=O)c1cc([N+](=O)[O-])ccc1Cl | inactive
CC(C)N1CCc2c(sc(NC(=O)c3cc(-c4cccs4)nc4ccccc34)c2C(N)=O)C1 | inactive

Structure (SMILES) | IC50
CCCCOc1ccc(C(=O)Oc2coc(CSc3ncccn3)cc2=O)cc1 | > 79 µM (inactive)
Oc1cccc(CSc2ncccn2)c1 | > 79 µM (inactive)
CC(C)(C)c1ccc(-n2nc(C#N)c(Cl)cc2=O)cc1 | 8.21 µM
Cc1ccccc1NCC(=O)c1ccc(Cl)cc1 | 1.72 µM
Cc1cc(C)nc(SCc2cccc(O)c2)n1 | > 79 µM (inactive)
CC(C)Oc1ccc(C(=O)Oc2coc(CSc3ncccn3)cc2=O)cc1 | > 79 µM (inactive)
CNC(=O)c1nnsc1S(=O)(=O)c1ccc(Cl)cc1 | 9.98 µM
COc1ccc(C(=O)Oc2coc(CSc3ncccn3)cc2=O)cc1 | > 79 µM (inactive)
CCOC(=O)C1=NNC(C(=O)c2ccc(Cl)cc2)C1c1ccccc1 (stereo not given) | inactive
Cc1ccnc(SCc2cccc(O)c2)n1 | > 79 µM (inactive)
C=CCOc1cccc(CSc2ncccn2)c1 | > 79 µM (inactive)
CC1(C)CC2(CC(c3ccccc3Cl)c3ccc(O)cc3O2)NC(=O)N1 (stereo not given) | > 79 µM (inactive)
Cc1ccnc(SCc2cc(=O)c(OC(=O)c3ccc(S(=O)(=O)N4CCCC4)cc3)co2)n1 | > 79 µM (inactive)
COc1ccc(NC2C(=O)Nc3ccccc32)cc1 (stereo not given) | > 79 µM (inactive)
COc1cc(C(=O)Oc2coc(CSc3ncccn3)cc2=O)c([N+](=O)[O-])cc1OC | > 79 µM (inactive)
O=C(Oc1coc(CSc2ncccn2)cc1=O)c1ccc(C(F)(F)F)cc1 | > 79 µM (inactive)
O=C(Oc1coc(CSc2ncccn2)cc1=O)c1ccc(Br)cc1 | > 79 µM (inactive)
Cc1ccc(N=C2C(=O)Nc3ccc(Br)cc32)cc1 | 3.92 µM
O=C1Nc2ccccc2C1=Nc1ccc(Br)cc1 | 6.68 µM
O=C(Nc1nc2c(F)cc(F)cc2s1)c1ccccn1 | 4.52 µM
CC(=O)c1ccc(N=C2C(=O)Nc3ccccc32)cc1 | 1.29 µM
COc1ccc(S(=O)(=O)NNc2nc(C)cc(C)n2)cc1Br | inactive
FC(F)(F)c1cccc(Sc2nc(-c3ccccc3)nnc2C(F)(F)F)c1 | 17.9 µM
Cc1ccc(C(=O)Oc2coc(CSc3ncccn3)cc2=O)cc1 | > 79 µM (inactive)
Cc1cccc(C2CC3(CC(C)(C)NC(=S)N3)Oc3cc(O)c(Cl)cc32)c1 (stereo not given) | inactive
Cc1ccnc(SCc2cc(=O)c(OC(=O)c3ccc(F)cc3)co2)n1 | > 79 µM (inactive)
CC(=O)Nc1ccc(NC(=O)CCC(=O)OCC(=O)c2ccc(C)c([N+](=O)[O-])c2)cc1 | inactive

Structure (SMILES) | IC50
O=C(Oc1coc(CSc2ncccn2)cc1=O)c1ccc(F)cc1 | > 79 µM (inactive)
Cc1cc(C)nc(SCc2cc(=O)c(OC(=O)c3ccc(C)c([N+](=O)[O-])c3)co2)n1 | > 79 µM (inactive)
Cc1ccnc(SCc2cc(=O)c(OCc3ccccc3)co2)n1 | > 79 µM (inactive)
O=c1cc(CCl)occ1O | > 79 µM (inactive)
Cc1cc(C)nc(SCc2cc(=O)c(OC(=O)c3cc([N+](=O)[O-])ccc3Cl)co2)n1 | inactive
CC1(C)CC2(CC(c3ccccc3Cl)c3ccc(OC(=O)c4ccccc4)cc3O2)NC(=S)N1 (stereo not given) | > 79 µM (inactive)
Cc1ccnc(SCc2cc(=O)c(OC(=O)c3ccc(OC(F)(F)F)cc3)co2)n1 | > 79 µM (inactive)
Cc1ccc(N=C2C(=O)Nc3c(C)cccc32)cc1 | inactive
O=C(CNc1cccc(Cl)c1)c1ccc(Br)cc1 | 3.03 µM
Cc1ccc(C)c(NCC(O)c2ccc(Cl)cc2)c1 (stereo not given) | > 79 µM (inactive)
Cc1ccc(C(=O)CNc2cc(C)ccc2C)cc1 | 3.44 µM
Cc1ccc(C(=O)Oc2coc(CSc3ncccn3)cc2=O)cc1C | > 79 µM (inactive)
CC(=O)Oc1cc2c(cc1Cl)C(c1ccccc1Cl)CC1(CC(C)(C)NC(=S)N1)O2 (stereo not given) | inactive
Cc1c(O)ccc2c1OC1(CC2c2ccccc2Cl)CC(C)(C)NC(=O)N1 (stereo not given) | > 79 µM (inactive)
COc1ccc(S(=O)(=O)NNc2nc(C)cc(C)n2)cc1[N+](=O)[O-] | inactive
O=C(CNc1ccccc1C(=O)O)c1ccccc1 | 2.1 µM
CCC[N+](CC#Cc1ccccc1)(CCC)CC(=O)c1ccc(Cl)cc1 | inactive
CC1(C)CC2(CC(c3ccccc3Cl)c3ccc(O)cc3O2)NC(=S)N1 (stereo not given) | inactive
Cc1cccc(N=C2C(=O)Nc3c(Cl)cccc32)c1 | 3.32 µM
Cc1ccc2nc(C)cc(C(=O)OCC(=O)c3ccc(Cl)c([N+](=O)[O-])c3)c2c1 | 7.74 µM
COc1ccc(C2CC3(CC(C)(C)NC(=S)N3)Oc3cc(OC(C)=O)cc(C)c32)cc1 (stereo not given) | > 79 µM (inactive)
CC(C(=O)OCC(=O)c1cccc([N+](=O)[O-])c1)N1C(=O)C2C3C=CC(C3)C2C1=O (stereo not given) | inactive
COc1ccc(C(=O)CNc2cccc(F)c2)cc1 | 18.8 µM
C=CCOc1cccc(CSc2nc(C)cc(C)n2)c1 | > 79 µM (inactive)
